Series [1] deals with cGAS. The series can be described thus: Tandem mass spectrometry quantification of cGAS deamidation. It is filed as biochemical, mouse. The following applies: UL37 expression; N196, N377, Q436, Q439. The procedure: Purified mcGAS(141-507) was deamidated by purified FLAG-UL37 in vitro. Then the samples were resolved with SDS-PAGE and the mcGAS bands were excised and applied to LC/MS/MS analysis. The analysis of samples was carried out using a Thermo Scientific Q-Exactive hybrid Quadrupole-Orbitrap Mass Spectrometer and a Thermo Dionex UltiMate 3000 RSLCnano System. Peptide mixtures from each sample were loaded onto a peptide trap cartridge at a flow rate of 5 μL/min. The trapped peptides were eluted onto a reversed-phase PicoFrit column (New Objective, Woburn, Mass.) using a linear gradient of acetonitrile (3-36%) in 0.1% formic acid. The elution duration was 120 min at a flow rate of 0.3 μl/min. Eluted peptides from the PicoFrit column were ionized and sprayed into the mass spectrometer, using a Nanospray Flex Ion Source ES071 (Thermo) under the following settings: spray voltage, 2.0 kV, Capillary temperature, 250° C. Other settings were empirically determined. Raw data files were searched against mouse protein sequence database obtained from NCBI website using the Proteome Discoverer 1.4 software (Thermo, San Jose, Calif.) based on the SEQUEST algorithm. Carbamidomethylation (+57.021 Da) of cysteines was fixed modification, and Oxidation and Deamidation Q/N-deamidated (+0.98402 Da) were set as dynamic modifications. The minimum peptide length was specified to be five amino acids. […]

For the next series, the target named is T1, RIG-I (Homo sapiens, UniProt O95786, D580E).
T1 construct: made in house; host or cells: GST-RIG-I: transfected 293T cells; UL37: E. coli
T1 sequence (O95786 1-925 D580E): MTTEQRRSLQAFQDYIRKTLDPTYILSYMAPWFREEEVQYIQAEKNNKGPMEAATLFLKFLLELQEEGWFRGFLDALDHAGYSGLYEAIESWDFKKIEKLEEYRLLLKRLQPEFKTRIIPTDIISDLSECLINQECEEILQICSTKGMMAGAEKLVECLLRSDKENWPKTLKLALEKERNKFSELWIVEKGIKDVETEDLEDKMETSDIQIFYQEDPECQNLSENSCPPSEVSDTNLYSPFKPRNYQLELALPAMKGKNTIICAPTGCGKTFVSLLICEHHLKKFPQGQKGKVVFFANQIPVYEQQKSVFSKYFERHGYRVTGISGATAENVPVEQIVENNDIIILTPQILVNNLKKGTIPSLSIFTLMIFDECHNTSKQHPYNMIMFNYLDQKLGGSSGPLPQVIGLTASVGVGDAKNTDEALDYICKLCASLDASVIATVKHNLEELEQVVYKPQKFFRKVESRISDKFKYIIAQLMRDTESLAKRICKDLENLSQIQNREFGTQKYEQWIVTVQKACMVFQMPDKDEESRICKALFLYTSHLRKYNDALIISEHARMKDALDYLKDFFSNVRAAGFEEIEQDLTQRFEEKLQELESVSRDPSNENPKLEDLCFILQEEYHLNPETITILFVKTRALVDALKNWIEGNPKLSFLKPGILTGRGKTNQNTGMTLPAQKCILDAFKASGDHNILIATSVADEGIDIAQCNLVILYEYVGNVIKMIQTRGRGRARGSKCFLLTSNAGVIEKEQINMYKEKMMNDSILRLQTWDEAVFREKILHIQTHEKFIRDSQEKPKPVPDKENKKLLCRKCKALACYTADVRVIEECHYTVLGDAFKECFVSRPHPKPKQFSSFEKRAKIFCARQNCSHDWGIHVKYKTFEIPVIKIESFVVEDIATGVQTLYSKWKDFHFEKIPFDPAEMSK
The series can be described thus: In vitro deamidation assay (RIG-I). It is filed as biochemical. Conditions: protein purified from E. coli, 2-DGE. The protocol: GST-RIG-I was purified from transfected 293T cells to homogeneity as determined by silver staining. In vitro on-column deamidation of RIG-I was performed as previously reported (He et al., 2015). Briefly, ˜0.2 μg of His-tagged UL37/UL37 (571-1123) expressed and purified from E. coli, and 0.6 μg of GST-RIG-I (bound to glutathione-conjugated agarose) were added to a total volume of 30 μl. The reaction was carried out at 30° C. for 45 min in deamidation buffer (50 mM Tris-HCl, pH 7.5, 100 mM NaCl, 5 mM MgCl2). Protein-bound GST beads were washed with deamidation buffer and GST-RIG-I was eluted with rehydration buffer (6 M Urea, 2 M Thio-urea, 2% CHAPS, 0.5% IPG Buffer, 0.002% bromophenol blue) at room temperature. Samples were then analyzed by two-dimensional gel electrophoresis and immunoblotting.

The subject of series [2] is cGAS. The series can be described thus: Real-time PCR in THP-1 cells stably expressing UL37, transfected with HT-DNA. It is filed as cell-based, human. The protocol: THP-1 or L929 cells were infected with HSV-1 (MOI=5) or stimulated with HT-DNA (2 μg/ml) or cGAMP (2 μg/ml) for 6 h unless specifically indicated otherwise. Cells were washed with cold PBS, and total RNA was extracted by using TRIzol Reagent (Invitrogen). RNA was digested with DNase I (New England Biolabs) to remove genomic DNA. One microgram of total RNA was used for reverse transcription with PrimeScript Reverse Transcriptase (Clontech) according to the manufacturer's instruction. Approximately 0.5% of the cDNA was used as template in each quantitative real-time PCR (qRT-PCR) reaction with SYBR master mix (Applied biosystems).
Lentivirus production was carried out in 293T cells as described previously. THP-1 or L929 cells were infected with lentivirus containing UL37 or UL37 C819S mutant. After 36 h, THP-1 cells were selected with puromycin at 1 μg/ml and L929 cells were selected with puromycin at 5 μg/ml.
On the technique in general: In qPCR the cycle at which signal appears reflects the starting amount.

Series [3] deals with T2, cGAS (Mus musculus, UniProt Q8C6L5).
T2 construct: Purified mcGAS(141-507) was deamidated by purified FLAG-UL37 in vitro; made in house; host or cells: E. coli BL21 (DE3)
T2 sequence (Q8C6L5 141-507): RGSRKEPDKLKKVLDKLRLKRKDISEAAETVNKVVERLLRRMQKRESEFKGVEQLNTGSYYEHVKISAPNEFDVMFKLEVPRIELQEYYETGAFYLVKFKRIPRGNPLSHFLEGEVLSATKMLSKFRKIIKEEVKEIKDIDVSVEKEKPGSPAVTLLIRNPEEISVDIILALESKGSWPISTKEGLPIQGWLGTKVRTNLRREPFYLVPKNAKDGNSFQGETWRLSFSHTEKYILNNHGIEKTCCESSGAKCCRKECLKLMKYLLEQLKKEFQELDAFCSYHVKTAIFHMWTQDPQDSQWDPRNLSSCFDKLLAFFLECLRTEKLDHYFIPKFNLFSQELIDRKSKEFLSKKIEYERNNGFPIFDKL
The series can be described thus: In vitro cGAMP activity assay. It is filed as biochemical. Conditions: in vitro cGAMP reaction. The procedure: 1 μM of MBP-cGAS or mutant proteins was mixed with 100 μM ATP and 100 μM GTP and 10 μCi [α-P32]-ATP in reaction buffer (20 mM Tris-Cl [pH 7.5], 150 mM NaCl, 5 mM MgCl2, 1 mM dithiothreitol [DTT]). After 2 h of incubation at 37° C., 2 μl of reaction solution was spotted onto PEI-Cellulose thin layer chromatography plate (Sigma). Reaction products were resolved with running buffer (1 M (NH4)2SO4, 1.5 M KH2PO4, pH 3.8). The TLC plates were dried and scanned with Phosphoimager (Fuji).

Another series has as its system IFN-β. Kind of series: IFN-β ELISA, 293T cells stably expressing UL37 infected with Sendai virus. The series is classed as cell-based, human. Conditions: UL37 expression, SeV infection, 16 hpi. The protocol:
Commercial cytokine ELISA kits used in this study include: human IFN-β (PBL Assay Science) and human RANTES (R&D Systems). Cytokine levels in the supernatant from cultured cells were assessed according to manufacturer's instruction. Absorbance was determined with FLUOstar Omega (BMG Labtech.).
On the technique in general: In an ELISA, binding on a coated surface is turned into a signal by an enzyme label.

The subject of series [4] is cGAS. The series can be described thus: In vitro deamidation assay (cGAS). It is filed as biochemical, mouse. The following applies: purified proteins. The protocol:
The in vitro deamidation assay was performed as previously described. Briefly, 5 μg of purified MBP-mcGAS or MBP-mcGAS-DDEE mutant on amylose resin was incubated with 0.5 gig of purified FLAG-UL37 or FLAG-UL37C819S at 30° C. for 45 min in deamidation buffer (50 mM Tris-HCl [pH 7.5], 100 mM NaCl, and 5 mM MgCl2). Then the reaction was stopped by adding rehydration buffer and the eluted proteins were analyzed by two-dimensional gel electrophoresis.

Series [5] concerns cGAS. The series can be described thus: cGAMP reporter assay (THP1-Lucia). The following applies: THP-1 cells transfected with HT-DNA (HT-DNA alone approximately 60 ng). The series is classed as cell-based, human. The procedure:
THP-1 Cells were transfected with HT-DNA (2 μg/ml) or infected with HSV-1 virus for 6 h. Cell extracts were prepared by heating at 95° C. for 5 min to denature most proteins, and then the precipitated proteins were removed by centrifugation. The supernatant containing cGAMP was delivered to digitonin-permeabilized (2.5 μg/ml for 30 min) THP1-Lucia cells at 37° C. for 30 min. The cells were cultured for another 20 h before Lucia reporter activity was measured according to the manufacturer's instruction (InvivoGen). Pure cGAMP was diluted and used as standard for the assay.
For orientation: A reporter such as luciferase makes a cellular process visible.

For series [6], the system named is interferon-stimulating DNA (ISD). Kind of series: Precipitation of biotinylated interferon-stimulating DNA (ISD) with cGAS. It is filed as binding.

The record followed here is US10596234B2, “Compositions and methods to inhibit viral replication” (priority 2016, dated 2020).

In the case of “UL37: HSV-1 UL37 tegument protein, a protein deamidase; SEQ ID NO. 1”, in the series on cGAS [1], the “increase of deamidation of the four cGAS sites” value was 2-3 fold. Also, the “RIG-I deamidation in vitro” value with RIG-I is reported as “sufficient to reduce RIG-I charge”. Also, the “reduction of IFNB1 and ISG56 expression” value in the series with cGAS [2] (THP-1 cells, HT-DNA transfection, UL37 expression) is recorded as roughly 60%. The “effect on expression of IFNB1, ISG56 and CXCL10 induced by HT-DNA” value in the series with cGAS [2] (THP-1 stable cell lines) is “potently reduced the expression of IFNB1, ISG56 and CXCL10”. Moreover, the “effect of added UL37 on cGAS-mediated cGAMP production” value with cGAS [3] is listed as “greatly reduced cGAS-mediated cGAMP production”. The “reduction of IFN-β secretion” value in the series on IFN-β is listed as roughly 75%. Further, the “cGAS deamidation in vitro (2DGE shift)” value in the series with cGAS [4] is on record as “shifted cGAS toward the positive end of the gel strip”. Further, the “intracellular cGAMP” value in the series on cGAS [5] was ~35 ng per one million THP-1 cells. Besides, the “increase of the interaction between cGAS and ISD” value in series [6] is on record as roughly 50%.
